Experimental data published in publication PMC5011688, “Polysaccharide enhances Radix Saposhnikoviae efficacy through inhibiting chromones decomposition in intestinal tract” (Scientific Reports, 2016).
Read-outs that look alike come from different tables or passages of the source. One block for each molecule: values may come before it.

Columns and labels:
Caco-2 cell monolayers = assay: Caco-2 bidirectional transport assay of cimifugin; type: in vitro ADME; conditions: for effect on flux/transport of cimifugin across Caco-2 monolayers: pretreatment or co-application with cimifugin, A→B flux, similar for B→A
Protocol: Caco-2 cells were obtained from the American Type Culture Collection (ATCC). […] For the permeability test, cells were seeded in transwell supports with polycarbonate membrane (0.4 μm, 1.12 cm^2, Corning Costar) at a density of 6 × 10^4 cells/cm^2. The integrity of the monolayers was tested by measuring the transepithelial electrical resistance (TEER) before and after every experiment. Only monolayers with TEER >200 Ω/cm^2 were used. Test compounds in transport buffer were added to the donor compartments of either apical (A → B) or basolateral (B → A) wells of the Insert System and incubated at 37 °C. Samples were collected at 0, 30, 60, 90, 120, and 150 min time points and analyzed for HPLC analysis of content of cimifugin as described above.

[1] = Transport of chromones across semi-permeable membrane (dialysis bag) with or without RS polysaccharide; type: physicochemical; conditions: 6 h; for total chromone: inside plus outside the membrane; for total chromone / Fluid inside the semi-permeable membrane, chromone / Fluid outside the semi-permeable membrane, chromone: pH 7.8, 37 °C; for Fluid inside the semi-permeable membrane, chromone / Fluid outside the semi-permeable membrane, chromone: sum of PGCN and cimifugin
Protocol: Dialysis bags made by semi-permeable membrane materials were used in this analysis. ~3 cm long dialysis bags were first processed as the following procedures in succession: 1) boiled for 5 min in distilled water; 2) rinsed by 60 °C water for 2 min; 3) rinsed by small intestine buffer for 2 min; 4) rinsed by small intestine buffer for 2 min; 5) immersed in buffer at 4 °C. After 12 h, these processed dialysis bags were tied tightly at one end to form a dialysis bag. 1 ml small intestine buffer (pH 7.8) containing cimifugin, PGCN, cimifugin + polysaccharide, or PGCN + polysaccharide was added into this bag and a glass bead was put in to keep this bag vertical. When the other end was tied (an air bubble was retained), this dialysis bag was suspended in 15 ml small intestine buffer. This system was left to stand for 6 h in 37 °C water bath and chromone content inside and outside of this semi-permeable membrane was measured by HPLC analysis.

[2] = Metabolism study of PGCN and GML in simulated gastric fluid (SGF); type: in vitro ADME; conditions: SGF pH 1.2, 37 °C, 2 h
Protocol: (§1) Simulated gastric fluid (SGF, pH 1.2) and simulated intestinal fluid (SIF, pH 6.8) were prepared based on Chinese Pharmacopeia (2010) and have been depicted previously. 100 μg PGCN or GML was added to 4 ml of either SGF or SIF to yield 4 reaction systems, i.e., PGCN/SGF (213.47 nM), PGCN/SIF (213.47 nM), GML/SGF (220.99 nM), GML/SIF (220.99 nM), respectively. Polysaccharides extracted in RS were added to these 4 reaction systems in accordance with the actual chromone-polysaccharide proportion, with each reaction further became three sub-systems, i.e., 0 polysaccharide/chrome, 1/2 polysaccharide/chromone, and pan-polysaccharide/chromone. Meanwhile, these 12 systems were allowed to react at 37 °C. Following 2 h, the reaction was stopped by 100 °C boiling for 10 min. Subsequently, these systems were evaporated to dryness and the residue was reconstituted in 1 ml methanol. After centrifugation at 3,000 rpm for 10 min, the supernatant was collected and used for HPLC analysis.

[3] = Metabolism study of PGCN and GML in simulated intestinal fluid (SIF); type: in vitro ADME; conditions: SIF pH 6.8, 37 °C, 2 h
Protocol: as §1

[4] = Transformation of cimifugin in small intestine enzyme solution; type: in vitro ADME, Sprague-Dawley rats; conditions: 38 °C
Protocol: Small intestine segment was taken from ten 12 h-fasting male Sprague-Dawley rats. The intestine tissue was first frozen at −80 °C for 12 h, and then ground and centrifuged at 10,000 rpm for 10 min. The supernatant constituted the enzyme solution used in the experiment. To explore the influence of RS polysaccharide on the metabolism of cimifugin, three groups were designed: control group containing 40 μg cimifugin in 1.2 ml enzyme solution; RS polysaccharide/cimifugin group containing 40 μg cimifugin and 8.7 mg RS polysaccharide in 1.2 ml enzyme solution; glucuronic acid/cimifugin group containing 40 μg cimifugin and 8.7 mg glucuronic acid in 1.2 ml enzyme solution. These groups were put in 38 °C water bath for reaction, while samples were taken at 15 and 30 min. After deproteinization by methanol, these samples were centrifuged at 10,000 rpm for 10 min. Subsequently, the supernatant was collected and analyzed for HPLC analysis as described above.

[5] = Pharmacokinetic measurement of chromone (cimifugin in rat plasma after oral chromone extracts); type: in vivo, Sprague-Dawley rats; conditions: for Tmax: male, Sprague-Dawley, rat, plasma, po, 4 g crude drug/kg, oral chromone extracts 4 g crude drug/kg for 5 days, plasma HPLC
Protocol: To explore the influence of RS polysaccharide on the pharmacokinetics of chromones, 2.11 g, 1.05 g RS polysaccharide, and 2.11 g glucuronic acid were added to the three aliquots of chromone components, with one aliquot left as control. Thus, totally four test compounds were obtained, including chromone/pan-polysaccharide (CP), chromone/1/2polysaccharide (CHP), chromone/glucuronic acid (CG), and chromone, which served as control. Forty male Sprague-Dawley rats were used in this experiment. They were randomly divided into 4 groups, each consisting of 10 rats. The rats in these four groups were orally administered with CP, CHP, CG and chromones at the dose of 4 g crude drug (equivalent to 10 ml RS extracts) per kg body weight, respectively for five consecutive days. After the final drug delivery of day 5 (at 0.5, 1, 1.5, 2, 3, 5, 8, 12, 16, and 24 h/day), rats were anesthetized by ether inhalation and rat blood samples were obtained from the orbit vein and centrifuged immediately at 3,000 rpm for 10 min to yield plasma. Each plasma sample (100 μl) was mixed with 20 μl of 70% perchloric acid and vortexed and centrifuged at 3,000 rpm for 10 min. The supernatant were subjected to 0.45 μm microporous membrane and the filtrate was collected for subsequent high performance liquid chromatography (HPLC) analysis. Chromatographic separation and analysis using an L-2000 Elite HPLC system has been previously reported. Briefly, the separation of the analytes were performed on a Kromasil C18 column (200 mm × 4.6 mm i.d., particle size 5 μm), equipped with a Shim-pack security guard column at a column temperature of 25 °C. The binary mobile phase consisted of methanol and water. A flow rate of 1.0 ml/min with a gradient elution program as follows: 40–45% methanol at 0–5 min; 45–60% methanol at 5–10 min; 60–80% methanol at 10–15 min; 80–95% methanol at 15–20 min; 95–40% methanol at 20–30 min. The injection volume was 20 μl and detection wavelength was kept at 254 nm.

[6] = small intestine buffer pH 7.8, 37 °C, mean ± SD, n = 10
[7] = apical application (A→B), A: cimifugin, B: polysaccharide, C: LY335979, D: troleandomycin, mean ± SD, n = 10
[8] = basolateral application (B→A), A: cimifugin, B: polysaccharide, C: LY335979, D: troleandomycin, mean ± SD, n = 10

effect on flux/transport of cimifugin across Caco-2 monolayers (Caco-2 cell monolayers): not affected
SMILES: Cl.Cl.Cl.O[C@@H](COc1cccc2ncccc12)CN1CCN([C@@H]2c3ccccc3[C@@H]3[C@H](c4ccccc42)C3(F)F)CC1 [LY335979, Zosuquidar Trihydrochloride, reference compound]

total chromone [1]: 105.0 ± 0.1 nmol
Fluid inside the semi-permeable membrane, PGCN [1, 6]: 15.2 ± 0.5 nmol
Fluid outside the semi-permeable membrane, PGCN [1, 6]: 89.8 ± 0.4 nmol
Fluid inside the semi-permeable membrane, chromone [1]: 15.2 ± 0.5 nmol
Fluid outside the semi-permeable membrane, chromone [1]: 89.8 ± 0.4 nmol
HPLC peak area, PGCN ([3]; mean ± SD, n = 10): 5159 ± 1238
SMILES: COc1c2c(cc3oc(COC4OC(CO)C(O)C(O)C4O)cc(=O)c13)OC(C(C)(C)O)C2 (centres unmarked) [PGCN, prime-O-glucosylcimifugin]
transformation in SGF (in words) [2]: a small amount of PCGN was converted into cimifugin
transformation in SIF (in words) [3]: an overwhelmingly large amount of PGCN was transformed into cimifugin

transformation in SGF (in words) [2]: a little GML was converted into PGCN
HPLC peak area, GML ([2]; mean ± SD, n = 10): 1369608 ± 83550
transformation in SIF (in words) [3]: underwent no change
HPLC peak area, GML ([3]; mean ± SD, n = 10): 1369720 ± 112480
SMILES: COc1c2c(cc3oc(C)cc(=O)c13)OC(C(C)(C)OC1OC(CO)C(O)C(O)C1O)C2 [GML, 4′-O-β-D-glucosyl-5-O-methylvisamminol]

effect on flux/transport of cimifugin across Caco-2 monolayers (Caco-2 cell monolayers): significantly enhanced
SMILES: CO[C@H]1C[C@H](O[C@H]2[C@H](C)[C@@H](O[C@@H]3O[C@H](C)C[C@H](N(C)C)[C@H]3OC(C)=O)[C@@H](C)C[C@@]3(CO3)C(=O)[C@H](C)[C@@H](OC(C)=O)[C@@H](C)[C@@H](C)OC(=O)[C@@H]2C)O[C@@H](C)[C@@H]1OC(C)=O [troleandomycin, Troleandomycin, reference compound]

total chromone [1]: 161.7 ± 0.5 nmol
Fluid inside the semi-permeable membrane, cimifugin [1, 6]: 18.1 ± 0.6 nmol
Fluid outside the semi-permeable membrane, cimifugin [1, 6]: 143.6 ± 0.1 nmol
Fluid inside the semi-permeable membrane, chromone [1]: 18.1 ± 0.6 nmol
Fluid outside the semi-permeable membrane, chromone [1]: 143.6 ± 0.1 nmol
stability in small intestine enzyme solutions (in words) ([4]; rat small intestine enzyme solution): underwent degradation to a great extent
Basolateral content of cimifugin, 30 min (Caco-2 cell monolayers; [7]): 15.21 ± 2.34 ng
Basolateral content of cimifugin, 60 min (Caco-2 cell monolayers; [7]): 30.85 ± 3.64 ng
Basolateral content of cimifugin, 90 min (Caco-2 cell monolayers; [7]): 143.92 ± 12.32 ng
Basolateral content of cimifugin, 120 min (Caco-2 cell monolayers; [7]): 236.01 ± 22.86 ng
Basolateral content of cimifugin, 150 min (Caco-2 cell monolayers; [7]): 201.33 ± 15.32 ng
Apical content of cimifugin, 30 min (Caco-2 cell monolayers; [8]): 26.87 ± 1.54 ng
Apical content of cimifugin, 60 min (Caco-2 cell monolayers; [8]): 50.45 ± 2.27 ng
Apical content of cimifugin, 90 min (Caco-2 cell monolayers; [8]): 234.35 ± 11.36 ng
Apical content of cimifugin, 120 min (Caco-2 cell monolayers; [8]): 354.24 ± 15.47 ng
Apical content of cimifugin, 150 min (Caco-2 cell monolayers; [8]): 289.46 ± 15.45 ng
Tmax ([5]; read-out: Tmax of cimifugin in rat plasma (first peak of double-peak curve)): 1.5 h
Tmax ([5]; read-out: Tmax of cimifugin in rat plasma (second peak of double-peak curve)): 8 h
detection in plasma of chromone treated rats (HPLC qualitative analysis) ([5]; whole process of the experiment, data not shown): only cimifugin was detected
SMILES: COc1c2c(cc3oc(CO)cc(=O)c13)O[C@H](C(C)(C)O)C2 [cimifugin]

effect on absorption of chromone in the form of cimifugin (AUC at 3 h and later) ([5]; co-administered orally with chromone extract, rat plasma): did not affect
SMILES: O=C[C@H](O)[C@@H](O)[C@H](O)[C@H](O)C(=O)O [glucuronic acid, Glucuronic acid, reference compound]
effect on cimifugin degradation / transformation into PGCN in small intestine enzyme solutions (in words) ([4]; added to cimifugin in enzyme solution): did not produce any effect on cimifugin transformation
